Patent publication US9125768B2, “Hygiene tissue comprising a microbe-inhibiting composition” (SCA HYGIENE PRODUCTS AB, priority 2006, dated 2015)

Key:
[1] = tested on: Candida albicans; experiment: Test 3: growth of Candida albicans in extracellular product of Ess-1 combined with additive, visual turbidity; format: cell-based; conditions: additive 50 mM combined with supernatant from Ess-1, pH adjusted to pKa of the acid, 20 hours 37° C.
Method: Ess-1 was grown to stationary phase in dMRSs broth (MRS broth without addition of sodium acetate). The bacterial culture was centrifuged to pellet the cells and sterile filtered using a 0,22 μm filter (MILLIPORE filter, Bedford, USA) whereupon the supernatant comprising the extracellular product was obtained. […] Wells containing strong growth of Candida in pure dMRSs-broth was graduated as five, while wells with no visual growth were graduated as zero.

[2] = tested on: Candida albicans (C. albicans 702); experiment: Test 1: growth of Candida albicans in extracellular product of LB 931 with additives, micro titre plate, visual turbidity; format: cell-based; conditions: additive 50 mM in combination with extracellular product of LB 931, pH 3.4±0.2, 37° C. 24 hrs
Method: The purpose of this test was to determine whether selected additives affect the growth of Candida albicans and if an improved growth inhibition can be achieved when they are added to the extracellular products of Lactobacillus plantarum, LB 931. The additives used in this test were ascorbic acid, citric acid, phenylalanine, acetic acid, propionic acid and sodium propionate.
A clinical isolate of Candida albicans (designated C. albicans 702) was used as test strain. It was isolated from the vagina of a person with vaginal candidiasis.
As control pure dMRSs broth (MRS broth without addition of sodium acetate) was used. A specified volume was transferred to wells of a micro titre plate and was let to air dry (45° C. minimum of 20 hrs).
Cultures of LB 931 grown in dMRSs broth were centrifuged to pellet the cells and sterile filtered using a 0,22 μm filter (MILLIPORE filter, Bedford, USA) in order to obtain the LB 931 supernatant com prising the LB 931 extracell War product. […]
The test was blinded so that there could be no preconceived opinions colouring the results. The inhibition of Candida was evaluated and graduated, by two persons using a template, on a scale from five to zero based on visual observations of turbidity with a calculated mean value being presented. […]

SMILES	inhibition of Candida albicans [1]	growth inhibiting effect on Candida (growth graded five to zero by turbidity) [2]
O=C1O[C@H]([C@@H](O)CO)C(O)=C1O [ascorbic acid]	increased inhibition	
CCC(=O)O [propionic acid]		no growth at all
